Data on 28 molecules can be found in PubChem BioAssay (NCI).

Assay in all cases: inhibition of tumour cell growth, NCI panel, 48 h
Test [1] concerns A498 renal.
The test system of test [2] is COLO 205 colon.
The test system of test [3] is HCT-116 colon.
Test [4] deals with K-562 leukemia.
The test system of test [5] is KM12 colon.
The test system of test [6] is NCI-H226 lung.
In test [7] the test system is SW-620 colon.
The subject of test [8] is RXF 393 renal.
Test [9] concerns MCF7 breast.
Test [10] deals with HS 578T breast.

Molecules are shown by their SMILES.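 Interpolation was linear, between the two tested concentrations surrounding the appropriate level; five concentrations were tested over 48 hours in 96-well plates. GI50: concentration for 50% inhibition of growth. Definition used: TGI = concentration required for complete inhibition of growth.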 Where only a bound is given, the exact number is not on record here.

Regarding `COC(=O)/C=C1\CCC2[C@@H](C(=O)CC3[C@]2(C)CCC[C@@]3(C)C(=O)OC)C1C` (stereo not given in full), the TGI in [1] amounted to 99.7 µM; in test [2], 33 µM; in [3], 48.3 µM; in test [4], 41.3 µM; in [5], 42.6 µM; in test [6] it was 56.6 µM. This molecule returned a TGI in [7] of 64.1 µM.

As for `Cc1nc2ccccc2c(=O)n1/N=C(\N=Nc1ccccc1)c1ccccc1Cl`, the TGI in [1] is over 100 µM; in test [2], over 100 µM; in [4], over 100 µM; in test [5], over 100 µM; in test [6], over 100 µM; in test [8] it was 61.8 µM. Further, in [7], the TGI was over 100 µM.

For `O=CCCn1[nH]c(=O)ccc1=O`, the TGI in [1], in [3], in test [4], in test [6], in test [8] and in [7] was over 100 µM each time.

For the molecule `O=CN/C=C/c1ccccc1`, the TGI is over 100 µM in test [1]; over 100 µM in test [2]; over 100 µM in [3]; over 31.6 µM in [4]; over 100 µM in [5]; over 100 µM in [6]. In addition, the TGI in [8] was over 100 µM; in [7], over 85.6 µM.

`C=CCCn1nc(-c2ccccc2)oc1=O`: the TGI in test [1], in test [2], in [3], in test [4], in test [5] and in [6] was over 100 µM each time. Moreover, the TGI in [8] and in test [7] was over 100 µM in each case.

As to `O=C1CCCc2ccc([N+](=O)[O-])c(O)c21`, the TGI in test [1], in test [2], in test [3], in test [4], in test [5] and in test [6] was over 100 µM each time. Further, the TGI in test [8] and in test [7] was over 100 µM each time.

Consider `Clc1ccc(-c2cnc3c(-c4ccnc(N5CCNCC5)c4)cnn3c2)cc1`, for which the GI50 in test [1] was 1.65 µM; in [2], 2.14 µM; in test [3], 1.71 µM; in test [4], 1.84 µM; in test [5], 1.87 µM; in test [9], 1.85 µM. In addition, the GI50 in test [6] is 21.4 µM; in test [8], 2.09 µM; in test [7], 1.78 µM. The TGI came out at 3.06 µM in test [1]; 3.77 µM in [2]; 3.09 µM in test [3]; 3.74 µM in test [4]; 3.43 µM in test [5]; 3.66 µM in test [9]. Further, the figures for the TGI in [6], in [8] and in test [7] were 44.7 µM, 3.72 µM and 3.27 µM, respectively.

With `CCOC(=O)NC(=O)c1cn(CCSCCOC(=O)NCCCCCCNC(=O)OCCSCCn2cc(C(=O)NC(=O)OCC)c(=O)n(C)c2=O)c(=O)n(C)c1=O`, the TGI in [2] was over 100 µM; in [3], 52.6 µM; in [6], 73.8 µM; in test [8], over 100 µM; in test [7], over 100 µM.

As for `COc1ccc(/C=C/c2onc3c(=O)n(C)nc(-c4ccccc4)c23)cc1`, the TGI in test [2], in test [3], in test [4], in [8] and in test [7] was over 100 µM each time.

As to `Cn1cnc([N+](=O)[O-])c1Sc1n[nH]c(-c2ccc(Cl)cc2)n1`, the TGI is 56.1 µM in test [1]; 30.9 µM in test [2]; 58.1 µM in [3]; 51.3 µM in [4]; 39.2 µM in test [5]; 34.5 µM in [6]. Also, the TGI in test [8] came out at 26.5 µM; in test [7], 78 µM.

Regarding `C[C@@H]1CC[C@@]2(C)OC(c3ccccc3)[C@H](CO)N2C1=O` (stereo not given in full), the TGI in test [1], in test [2], in test [3], in [4], in [5] and in [8] was over 100 µM throughout. Moreover, the TGI in [7] is over 100 µM.

For `C[C@]12Cc3conc3C(O)=C1CC[C@@H]1C2CC[C@@]2(C)C1CC[C@@H]2O` (stereo not given in full), the TGI was 57.7 µM in test [1]; 99.4 µM in test [2]; over 100 µM in test [4]; 70.7 µM in test [5]; 56.8 µM in test [6]; 44.9 µM in [8]. The same molecule showed a TGI in [7] of over 100 µM.

`COc1cccc2c1C(=O)c1c(O)c3c(c(O)c1C2=O)C[C@](O)(C(=O)CO)C[C@H]3O[C@@H]1C[C@@H](NC(=O)CCCN(C)C2(c3ccc(F)cc3)CC3CCC2C3)[C@H](O)[C@@H](C)O1` (stereo not given in full): the GI50 is 5.31 µM in test [1]; 0.712 µM in test [2]; 0.742 µM in test [3]; 6.78 µM in test [10]; 1.02 µM in [4]; 3.53 µM in test [6]. Also, the GI50 is 0.696 µM in test [8] and 0.641 µM in [7]. Moreover, the TGI was 12.5 µM in [1]; 1.44 µM in test [2]; 1.47 µM in test [3]; 20.9 µM in test [10]; 2.58 µM in [4]; 15.7 µM in test [6]. Moreover, the TGI was 1.41 µM in test [8] and 1.49 µM in test [7].

On to `ClCc1ccccc1Cn1cnc2nc(Cl)nc(Cl)c21`, for which the GI50 in test [1] was 2.13 µM; in test [2], 0.357 µM; in [3], 0.115 µM; in test [10], 0.331 µM; in [4] it was 0.239 µM; in test [5], 5.93 µM. In addition, the GI50 in [6] is 1.18 µM; in [7], 0.266 µM. The TGI is 4.83 µM in test [1]; over 100 µM in test [2]; 0.236 µM in test [3]; 1.22 µM in [10]; 2.95 µM in [4]; 24.2 µM in test [5]. In addition, the TGI in [6] stood at 9.52 µM; in test [8], 2.94 µM; in test [7], 0.682 µM.

For `CN(C)CC1(C)CC/C(=C\c2ccc(Cl)cc2)C1=O` (stereo not given), the TGI in test [1] is over 100 µM; in test [2], 31.7 µM; in [3], over 100 µM; in test [4], over 100 µM; in [5], 80.3 µM; in [6] it was over 100 µM. Besides, the results for the TGI in test [8] and in test [7] were 82.1 µM and 35.5 µM, respectively.

`N#Cc1c(N)nc2c(c1-c1ccc(Cl)cc1)COc1ccc(F)cc1-2`: the GI50 was 22.3 µM in [1]; 36.8 µM in test [3]; 15.5 µM in [4]; 29.4 µM in test [5]; 17.9 µM in [9]; 20.3 µM in [8]. The GI50 in test [7] was 31.1 µM. Further, the TGI in test [1] was 52.3 µM; in test [3], over 100 µM; in test [4], 34.1 µM; in test [5], 80 µM; in test [9], over 100 µM; in [8] it was over 100 µM. The molecule further registered a TGI in test [7] of 97.4 µM.

For `COc1ccc(C)c2sc(N(Cc3cccnc3)C(=O)c3ccc(C#N)cc3)nc12`, the GI50 in test [1] is 2.21 µM; in [2], 24.7 µM; in [3], 29.2 µM; in test [10] it was 50.2 µM; in [4], 37.9 µM; in test [5], 34.6 µM. Besides, the GI50 in test [6] was 54.4 µM; in test [8] it was 26.1 µM; in test [7], 54.2 µM. Besides, the TGI is 95.5 µM in test [1]; 70 µM in [2]; over 100 µM in test [3]; over 100 µM in [10]; over 100 µM in test [4]; over 100 µM in [5]. The TGI in test [6] is over 100 µM; in test [8], 99.8 µM; in test [7], over 100 µM.

Take `c1cc[c]([Ge]([O]c2cccc3cccnc23)([c]2ccccc2)[c]2ccccc2)cc1`: the GI50 in test [1] was 13 µM; in test [2] it was 4.8 µM; in test [3], 3.41 µM; in [5], 1.95 µM; in test [6], 6.33 µM; in [8], 1.88 µM. Moreover, in test [7], the GI50 was 3.02 µM. Moreover, the TGI in test [1] was found to be 25.7 µM; in [2], 14.9 µM; in test [3], 12.7 µM; in test [5], 5.09 µM; in test [6], 23 µM; in test [8], 5.49 µM. Further, the TGI in test [7] was 7.46 µM.

Turning to `C=C(C)CC(C(=O)O)c1ccc(C)cc1` (stereo not given), the TGI in [1], in test [2], in test [3], in [4], in test [5] and in test [8] was over 100 µM throughout. Moreover, the TGI in test [7] was over 100 µM.

Turning to `COc1cc2c3c(n(CCCN=[N+]=[N-])c(=O)c2cc1OC)-c1ccccc1C3=O`, the GI50 in test [3] was 1.81 µM; in [4], 3.48 µM; in test [5] it was over 100 µM; in test [9] it was 5.35 µM; in test [7] it was 12 µM. The TGI is 17.8 µM in test [3]; over 100 µM in test [4]; over 100 µM in test [5]; over 100 µM in [9]; over 100 µM in test [7].

In the case of `N#CC(Sc1ccccc1)C(N)=O` (stereo not given), the TGI in test [1], in test [2], in test [3], in test [4], in test [5] and in [6] was over 100 µM throughout. Further, the TGI in [8] and in [7] was over 100 µM each time.

`COc1ccc(C2(Cl)C(Cl)(C(F)(F)F)C2(Cl)C(F)(F)F)cc1` (stereo not given): the TGI in [2] was 29.3 µM; in [3], 23.9 µM; in test [4], over 100 µM; in test [5] it was 27 µM; in test [6], 28.9 µM; in test [8] it was 24.6 µM. This molecule gave a TGI in [7] of 33.1 µM.

Consider `C=CC12CCCCC1CC(C(=O)OC)=C(O)C2` (stereo not given), for which the TGI in [2], in test [3], in [4], in [5], in test [6] and in test [8] was over 100 µM each time. The same molecule registered a TGI in test [7] of over 100 µM.

On to `CCOC(=O)C1CC(=O)C=C2CCCCC21` (stereo not given), for which the TGI in test [1], in [2], in test [3], in test [4], in test [5] and in test [8] was over 100 µM in each case. This molecule also registered a TGI in test [7] of over 100 µM.

For `O=C1CCC2(c3ccc(Cl)cc3)Nc3ccccc3N12` (stereo not given), the TGI in test [1], in test [2], in test [3], in test [4], in [5] and in test [6] was over 100 µM each time. In addition, the TGI in test [8] and in test [7] was over 100 µM in each case.

As to `O/N=C1/CCCC/C1=C\c1ccc(Cl)c(Cl)c1`, the TGI in [1] is 84.5 µM; in test [2], 38.9 µM; in test [3] it was 35.8 µM; in [4], over 100 µM; in [7] it was over 100 µM.

`CCCCCN(CCCCC)CCC[C@@H](C)[C@H]1CC[C@H]2[C@@H]3[C@H](OCCCN)C[C@@H]4C[C@H](OCCCN)CC[C@]4(C)[C@H]3C[C@H](OCCCN)[C@]12C`: the GI50 in test [1] is 10.2 µM; in test [2], 5.89 µM; in [3], 2.4 µM; in [4], 1.84 µM; in [5] it was 3.59 µM; in test [9] it was 14.5 µM. Also, the values for the GI50 in test [6], in test [8] and in test [7] were 5.11 µM, 11.9 µM and 4.79 µM, respectively. Further, the TGI is 60.7 µM in test [1]; 22.8 µM in test [2]; 14.7 µM in test [3]; 4.33 µM in test [4]; 17 µM in test [5]; 34.7 µM in [9]. The TGI in [6] was 24.8 µM; in test [8], 32.7 µM; in test [7] it was 20.2 µM.

Take `O=C(O)c1cnc2c(ccc3[nH]cccc32)c1=O`: the TGI in [1], in test [2], in [3], in test [4], in test [5] and in [8] was over 100 µM each time. Moreover, the TGI in [7] was over 100 µM.
